Source: patent US20250041278A1, “TLR8 AGONIST FOR MODULATING IMMUNE RESPONSE” (The Children's Medical Center Corporation, priority 2021, published 2025)

Legend:
Type in all cases: cell-based
hTLR7 = molecular target: T1, hTLR7 (Homo sapiens, UniProt Q9NYK1); assay: HEK hTLR7 NF-κB SEAP reporter assay; settings: even at higher concentrations
T1 construct: expressed in transfected cells; host or cells: HEK reporter cells
T1 sequence (Q9NYK1 27-1049): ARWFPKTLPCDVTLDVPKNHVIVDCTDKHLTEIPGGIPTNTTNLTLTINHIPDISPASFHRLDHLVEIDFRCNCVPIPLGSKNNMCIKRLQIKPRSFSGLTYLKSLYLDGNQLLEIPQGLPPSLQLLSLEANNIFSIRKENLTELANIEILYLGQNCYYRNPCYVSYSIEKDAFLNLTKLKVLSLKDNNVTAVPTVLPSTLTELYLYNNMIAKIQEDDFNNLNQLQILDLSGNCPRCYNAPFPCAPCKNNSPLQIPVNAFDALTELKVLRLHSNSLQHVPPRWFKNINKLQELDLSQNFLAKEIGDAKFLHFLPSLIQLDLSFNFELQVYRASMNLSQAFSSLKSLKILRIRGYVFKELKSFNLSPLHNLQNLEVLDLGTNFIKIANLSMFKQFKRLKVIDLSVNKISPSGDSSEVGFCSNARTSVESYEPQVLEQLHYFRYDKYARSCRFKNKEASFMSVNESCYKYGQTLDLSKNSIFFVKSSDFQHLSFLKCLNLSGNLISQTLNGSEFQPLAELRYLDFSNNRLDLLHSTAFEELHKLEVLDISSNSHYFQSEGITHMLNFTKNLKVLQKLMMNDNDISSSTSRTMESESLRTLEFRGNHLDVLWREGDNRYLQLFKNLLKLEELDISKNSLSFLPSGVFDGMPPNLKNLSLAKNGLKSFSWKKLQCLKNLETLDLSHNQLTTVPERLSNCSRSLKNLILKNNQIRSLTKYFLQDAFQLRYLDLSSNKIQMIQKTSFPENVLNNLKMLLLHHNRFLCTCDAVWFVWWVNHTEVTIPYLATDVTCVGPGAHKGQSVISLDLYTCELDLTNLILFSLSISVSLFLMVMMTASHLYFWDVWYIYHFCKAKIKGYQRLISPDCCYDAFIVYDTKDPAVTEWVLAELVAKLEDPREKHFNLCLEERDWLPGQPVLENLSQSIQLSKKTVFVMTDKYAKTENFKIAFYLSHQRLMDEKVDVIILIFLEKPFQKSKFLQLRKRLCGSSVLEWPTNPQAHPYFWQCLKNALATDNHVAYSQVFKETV
Experimental: (§1) FIGS. 3A-3E. PVP-179 is a TLR8 agonist. FIG. 3A: PVP-179 was sent to InvivoGen for PRR ligand screening service. Various cells lines were utilized to screen for PVP-179-induced ([…]) activation of TLRs, NOD1/2, RIG-I/MDA-5, Dectin-1 or Mincle receptor. The heat-map depicts percentage activity compared to the positive control for each receptor. FIG. 3B: PVP-179 induced activity (% activity compared to the positive control: CL075 at 1 μg/mL) in HEK-293 cells specifically expressing hTLR8. In brief, these cells have an NF-κB/AP-1-inducible secreted embryonic alkaline phosphatase (SEAP) reporter gene which allows monitoring of signaling via TLR8. After incubation for 16-24 hours, supernatant harvested from the cells is mixed with media containing SEAP-substrate and the optical density (OD) is measured at 650 nm using a spectrophotometer. FIG. 3C: As in FIG. 3B, HEK cells specifically expressing hTLR2, hTLR7, or hTLR8, in addition to the HEK-Null cell line carrying only the reporter gene, were stimulated with the indicated concentrations of PVP-179. […] PVP-179 activity is expressed as a percentage of NF-κB induced in the cells stimulated with TNF (positive control for each cell line). […] The supernatants were harvested after 20-24 hours and SEAP production (to assess NF-κB activity) was measured using QUANTIBlue assay. […]

hTLR2 = molecular target: T2, hTLR2 (Homo sapiens, UniProt O60603); assay: HEK hTLR2 NF-κB SEAP reporter assay; settings: even at higher concentrations
T2 construct: expressed in transfected cells; host or cells: HEK reporter cells
T2 sequence (O60603 21-784): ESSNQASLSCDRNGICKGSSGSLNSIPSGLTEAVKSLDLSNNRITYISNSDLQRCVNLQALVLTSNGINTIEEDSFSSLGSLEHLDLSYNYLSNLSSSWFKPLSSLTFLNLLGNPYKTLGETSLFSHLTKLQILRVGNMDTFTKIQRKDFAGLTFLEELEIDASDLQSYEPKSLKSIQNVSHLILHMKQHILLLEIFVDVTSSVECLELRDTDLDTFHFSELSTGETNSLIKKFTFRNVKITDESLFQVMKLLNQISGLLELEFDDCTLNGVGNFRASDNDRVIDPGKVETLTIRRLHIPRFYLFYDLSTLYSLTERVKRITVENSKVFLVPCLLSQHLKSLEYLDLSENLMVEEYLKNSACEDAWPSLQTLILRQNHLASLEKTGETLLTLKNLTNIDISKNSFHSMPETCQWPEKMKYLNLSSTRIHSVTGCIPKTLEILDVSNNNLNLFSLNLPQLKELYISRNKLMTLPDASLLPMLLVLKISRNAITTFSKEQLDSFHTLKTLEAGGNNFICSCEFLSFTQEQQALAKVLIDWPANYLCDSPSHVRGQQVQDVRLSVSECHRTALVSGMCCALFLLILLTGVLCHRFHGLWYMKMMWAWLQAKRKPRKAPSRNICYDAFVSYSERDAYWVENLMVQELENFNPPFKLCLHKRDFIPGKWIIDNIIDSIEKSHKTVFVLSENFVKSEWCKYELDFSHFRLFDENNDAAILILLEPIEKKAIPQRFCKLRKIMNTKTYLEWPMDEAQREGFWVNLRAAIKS
Experimental: as §1

[1] = tested on: human monocyte derived dendritic cells; assay: TNF ELISA in human monocyte derived dendritic cells (MoDCs); settings: 20-24 hours
Experimental: FIGS. 4A-4D. PVP-179 activates human macrophages and dendritic cells. FIGS. 4A-4B: Murine mononuclear cells were isolated from bone marrow and induced differentiation into dendritic cells (with GM-CSF and IL-4). After 5 days of culturing, these bone-marrow-derived dendritic cells (BMDCs) were stimulated with PVP-179 or MPLA for 18 hours at indicated concentrations. The supernatants were analyzed via ELISA where each dot in the graph represents the mean production of mTNF (FIG. 4A) and mIL-6 (FIG. 4B). N=6 for PVP-179, N=3 for MPLA. Two-way Anova was performed to determine statistical significance. The comparisons shown are compared to control group (0 M PVP-179). FIGS. 4C-4D: PBMCs were isolated from blood of adult human donors. CD14+ monocytes were specifically isolated from the PBMCs and were then cultured in 10% autologous plasma and induced to differentiate into macrophages with M-CSF (FIG. 4C), or dendritic cells with GM-CSF and IL-4 (FIG. 4D). After 5 days, cells were harvested from each differentiated cell type (macrophages: Mφ; dendritic cells: MoDCs) and a 96-well plate was setup with 100,000 cells/well. Cells were then stimulated with indicated concentrations of PVP-179 or R848 (33 μM) or LPS (100 ng/mL). After 20-24 hours of incubation, supernatants were harvested and applied to TNF ELISA. N=2 donors.

CCCCn1c(/N=C/c2nc3ccccc3n2C)nc2ccccc21 [PVP-179]
NF-κB activity in HEK cells expressing hTLR7 (hTLR7): no activity was detected
NF-κB activity in HEK cells expressing hTLR2 (hTLR2): no activity was detected
TNF-inducing activity [1]: concentration-dependent activity
